Assay [1] has as its target T1, Integrin αvβ6 Receptor (Homo sapiens, UniProt P06756+P18564). The assay can be described thus: HTRF binding activity to integrin αvβ6 receptor (competition with LAP (TGF-beta 1)). The following applies: for Hillslope: fit parameter of the inhibition curve; for Max: maximum of the inhibition curve; for Min: minimum of the inhibition curve. How it is done: Main Experimental Reagents and Consumables
Inhibition rate and fit IC50 was calculated using Excel and XL-Fit respectively, formula as follows: Inhibition % = (Max−Signal)/(Max−Min)*100 [formula] Y = Bottom + (Top−Bottom)/(1+(IC50/X)[…]), [formula] Y and X represent %inhibition and compound concentration respectively
A general note: In TR-FRET formats the signal depends on donor and acceptor labels being close together.

The next assay addresses Integrin αvβ5 Receptor (Homo sapiens, UniProt P06756+P18084). Put plainly: HTRF binding activity to integrin αvβ5 receptor (competition with Vitronectin).
Another assay deals with Integrin αvβ1 Receptor (Homo sapiens, UniProt P05556+P06756). Put plainly: Fluorescence polarization (FP) binding activity to integrin αvβ1 receptor (competition with Cyclo[-RGDy-K(5-FAM)]). The following applies: Table 4, different integrin receptors.
Sequence of Integrin αvβ1 Receptor (P06756 31-992 limits assumed): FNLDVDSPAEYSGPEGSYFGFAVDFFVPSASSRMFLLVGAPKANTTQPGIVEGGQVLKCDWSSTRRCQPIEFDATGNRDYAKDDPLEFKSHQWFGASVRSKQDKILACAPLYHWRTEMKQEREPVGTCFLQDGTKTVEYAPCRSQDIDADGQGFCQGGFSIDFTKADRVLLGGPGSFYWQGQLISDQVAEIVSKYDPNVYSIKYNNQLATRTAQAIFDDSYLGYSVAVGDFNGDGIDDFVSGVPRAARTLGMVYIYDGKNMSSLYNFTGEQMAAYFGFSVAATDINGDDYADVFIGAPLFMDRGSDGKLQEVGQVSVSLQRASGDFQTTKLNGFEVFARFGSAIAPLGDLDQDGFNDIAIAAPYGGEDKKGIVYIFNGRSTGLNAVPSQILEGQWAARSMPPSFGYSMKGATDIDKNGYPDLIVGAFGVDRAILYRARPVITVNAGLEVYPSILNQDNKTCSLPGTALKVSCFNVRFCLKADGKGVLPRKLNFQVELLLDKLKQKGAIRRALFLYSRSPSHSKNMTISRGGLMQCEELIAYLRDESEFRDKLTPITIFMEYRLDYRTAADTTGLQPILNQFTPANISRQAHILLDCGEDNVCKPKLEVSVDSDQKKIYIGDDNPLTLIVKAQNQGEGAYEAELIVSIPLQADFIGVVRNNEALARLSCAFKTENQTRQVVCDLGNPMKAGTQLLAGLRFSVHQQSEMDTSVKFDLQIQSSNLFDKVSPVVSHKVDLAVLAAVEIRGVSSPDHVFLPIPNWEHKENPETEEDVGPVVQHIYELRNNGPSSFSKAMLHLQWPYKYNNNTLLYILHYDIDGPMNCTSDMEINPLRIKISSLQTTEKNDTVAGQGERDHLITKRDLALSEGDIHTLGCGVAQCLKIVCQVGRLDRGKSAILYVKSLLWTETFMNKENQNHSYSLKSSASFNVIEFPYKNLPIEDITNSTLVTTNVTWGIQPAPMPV
Sequence of Integrin αvβ1 Receptor (P05556 21-728 limits assumed): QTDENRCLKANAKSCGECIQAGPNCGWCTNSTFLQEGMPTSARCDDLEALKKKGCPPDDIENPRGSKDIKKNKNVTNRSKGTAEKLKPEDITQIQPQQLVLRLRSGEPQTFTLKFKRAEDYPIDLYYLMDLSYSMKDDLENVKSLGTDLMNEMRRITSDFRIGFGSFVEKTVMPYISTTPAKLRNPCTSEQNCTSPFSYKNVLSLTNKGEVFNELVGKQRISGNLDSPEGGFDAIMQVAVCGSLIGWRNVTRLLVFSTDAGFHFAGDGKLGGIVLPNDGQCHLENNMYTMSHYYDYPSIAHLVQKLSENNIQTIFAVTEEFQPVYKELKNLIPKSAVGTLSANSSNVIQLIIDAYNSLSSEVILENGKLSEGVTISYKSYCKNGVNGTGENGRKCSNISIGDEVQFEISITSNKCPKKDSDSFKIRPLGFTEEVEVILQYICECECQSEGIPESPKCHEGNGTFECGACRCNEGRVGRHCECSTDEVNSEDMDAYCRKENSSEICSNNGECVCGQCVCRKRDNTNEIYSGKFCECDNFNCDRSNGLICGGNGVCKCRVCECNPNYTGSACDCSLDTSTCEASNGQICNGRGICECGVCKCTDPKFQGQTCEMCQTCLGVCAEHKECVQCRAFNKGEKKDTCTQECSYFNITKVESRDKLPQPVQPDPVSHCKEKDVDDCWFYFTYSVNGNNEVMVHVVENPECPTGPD
The target of assay [2] is T1, Integrin αvβ6 Receptor. Put plainly: HTRF binding activity to integrin αvβ6 receptor (competition with LAP (TGF-beta 1)). The following applies: for Hillslope: fit parameter of the inhibition curve; for Emax: maximum of the inhibition curve, read-out: Max; for IC50: table of 5FAM-labelled compounds. How it is done: Reagent Preparation: Assay buffer was prepared.
Where [3] appears, read: Integrin αvβ6, HTRF, Table 3, several runs, each with Cilengitide and 1 as references, read-out: IC50.
Setting [4] is: IC50 (nM) αvβ5, Table 4, different integrin receptors.
The mark [5] stands for this setting: Table 4, different integrin receptors, read-out: IC50 (nM) αvβ6.
The mark [6] stands for this setting: Integrin αvβ6, HTRF, table of 5FAM-labelled compounds, read-out: IC50.

Data on 31 compounds can be found in patent publication EP4786451A1, “COMPOUND TARGETING INTEGRIN AND USE THEREOF IN RNAI AGENT” (YUN HO BIO CO., LTD, priority 2023, dated 2025).

For orientation: IC50 means the midpoint of a concentration-inhibition curve.

Values joined by “and” are separate entries in the source; they are usually repeats but may differ in a detail not shown here. Identical values can stand only once. Like-named read-outs stand apart in the source and are kept apart here.

T1 sequence (P06756 31-992 limits assumed): as the sequence (P06756 31-992 limits assumed) above
T1 sequence (P18564 22-707 limits assumed): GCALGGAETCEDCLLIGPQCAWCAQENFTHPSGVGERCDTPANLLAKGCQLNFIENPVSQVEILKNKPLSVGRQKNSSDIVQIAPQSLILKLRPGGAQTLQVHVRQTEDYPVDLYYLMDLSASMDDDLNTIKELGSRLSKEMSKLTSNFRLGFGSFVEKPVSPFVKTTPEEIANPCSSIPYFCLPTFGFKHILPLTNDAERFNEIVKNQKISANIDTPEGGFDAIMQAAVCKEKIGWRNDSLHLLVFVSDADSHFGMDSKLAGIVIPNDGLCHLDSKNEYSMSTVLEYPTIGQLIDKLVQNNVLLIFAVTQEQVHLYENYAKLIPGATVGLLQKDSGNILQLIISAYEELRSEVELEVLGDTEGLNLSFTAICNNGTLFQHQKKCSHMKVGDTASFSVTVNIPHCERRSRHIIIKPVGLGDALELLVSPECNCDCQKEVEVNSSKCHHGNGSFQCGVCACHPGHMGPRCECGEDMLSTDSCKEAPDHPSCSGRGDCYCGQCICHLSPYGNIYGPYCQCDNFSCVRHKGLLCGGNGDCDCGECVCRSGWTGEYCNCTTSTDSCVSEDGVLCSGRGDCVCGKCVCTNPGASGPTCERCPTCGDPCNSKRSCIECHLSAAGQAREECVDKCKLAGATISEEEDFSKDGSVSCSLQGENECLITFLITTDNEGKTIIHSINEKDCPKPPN
Sequence of Integrin αvβ5 Receptor (P06756 31-992 limits assumed): as the sequence (P06756 31-992 limits assumed) above
Sequence of Integrin αvβ5 Receptor (P18084 24-719 limits assumed): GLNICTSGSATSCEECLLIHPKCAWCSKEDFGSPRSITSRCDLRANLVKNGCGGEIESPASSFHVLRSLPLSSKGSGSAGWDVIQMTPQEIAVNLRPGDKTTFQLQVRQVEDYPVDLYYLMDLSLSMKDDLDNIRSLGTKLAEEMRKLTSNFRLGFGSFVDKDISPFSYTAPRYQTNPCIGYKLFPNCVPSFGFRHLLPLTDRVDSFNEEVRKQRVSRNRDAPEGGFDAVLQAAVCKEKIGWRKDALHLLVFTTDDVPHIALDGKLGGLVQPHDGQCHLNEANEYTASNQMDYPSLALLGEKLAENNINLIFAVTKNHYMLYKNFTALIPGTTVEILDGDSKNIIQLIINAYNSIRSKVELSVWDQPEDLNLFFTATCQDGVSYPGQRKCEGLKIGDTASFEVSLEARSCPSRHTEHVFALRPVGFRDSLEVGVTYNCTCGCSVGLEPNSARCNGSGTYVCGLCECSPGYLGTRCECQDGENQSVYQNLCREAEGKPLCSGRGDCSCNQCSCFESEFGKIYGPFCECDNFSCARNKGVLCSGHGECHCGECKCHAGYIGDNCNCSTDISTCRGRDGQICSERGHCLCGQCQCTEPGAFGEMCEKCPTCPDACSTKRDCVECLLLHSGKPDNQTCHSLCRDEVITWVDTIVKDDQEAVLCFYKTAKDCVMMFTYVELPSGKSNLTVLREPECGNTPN
Method for Integrin αvβ5 Receptor: B. Evaluation of Compound Binding Activity to Integrin αvβ5 Receptor using Homogeneous Time-Resolved Fluorescence (HTRF) Technology
Compound Preparation: Same as A.
Then 5 µL of integrin receptor protein αvβ5 was added (5 µL of assay buffer was added for negative control), incubated at room temperature for 20 minutes. Next, 5 µL of ligand protein VTN, and 10 µL of the SA-Tb and Anti-His XL665 mixture were added respectively, incubated at room temperature for 1 hour.

As for `[N-]=[N+]=NCCOCCOCCOCCOCCOc1cc(C(CC(=O)O)CN2CCC(CCc3ccc4c(n3)NCCC4)C2)ccc1F` (stereo not drawn) [Compound 86], the IC50 at Integrin αvβ6 Receptor [1] (setting [3]) is 4.5 nM.
For `Cc1ccnc(NCCC2CCN(CC(=O)NC(CC(=O)O)c3ccc(-c4ccc(OCCOCCOCCOCCOCCN=[N+]=[N-])c5ccccc45)cc3)C2=O)c1` (single isomer, unassigned) [Compound 5-P2], the IC50 worked out at 142 nM on Integrin αvβ5 Receptor (setting [4]), 3.9 nM on Integrin αvβ6 Receptor [1] (setting [3]), 3.9 nM at Integrin αvβ6 Receptor [1] (setting [5]) and 333 nM on Integrin αvβ1 Receptor. Moreover, the “specific binding ability to the αvβ6 receptor” value on Integrin αvβ6 Receptor [1] (αvβ6 compared with αvβ1 and αvβ5) is recorded as “specific binding ability to the αvβ6 receptor”.
Regarding `CNc1cccc(CCCCC(=O)N[C@@H](CC(=O)O)c2ccc(-c3ccc(OCCOCCOCCOCCOCCn4cc(CNC(=O)c5ccc6c(c5)C(=O)OC65c6ccc(O)cc6Oc6cc(O)ccc65)nn4)c4ccccc34)cc2)n1` [Compound 7-5FAM], at Integrin αvβ6 Receptor [2], the Hillslope was 1.2, the Emax is 102% and the IC50 stood at 3.17 nM.
For `Cc1ccnc(NCCCC(=O)NCC(=O)N[C@@H](CC(=O)O)c2ccc(-c3ccc(OCCOCCOCCOCCOCCn4cc(CNC(=O)c5ccc6c(c5)C(=O)OC65c6ccc(O)cc6Oc6cc(O)ccc65)nn4)c4ccccc34)cc2)c1` [Compound 1-5FAM], at Integrin αvβ6 Receptor [2], the Emax came out at 97% and the IC50 came out at 1.41 nM.
On to `[N-]=[N+]=NCCOCCOCCOCCOCCOc1cccc2c(-c3ccc(C(CC(=O)O)CN4CCC(CCc5ccc6c(n5)NCCC6)C4)cc3)cccc12` (stereo not drawn) [Compound 71], for which the IC50 at Integrin αvβ6 Receptor [1] (setting [3]) came out at 3 nM.
For `Cc1nc(C)n(CCOCCOCCOCCOCCN=[N+]=[N-])c1-c1cccc(C(CC(=O)O)CN2CC[C@@H](CCc3ccc4c(n3)NCCC4)C2)c1` (stereo partly drawn) [Compound 15], the IC50 at Integrin αvβ6 Receptor [1] (setting [3]) turned out to be 2.5 nM.
On to `Cc1ccnc(NCCC2CCN(CC(=O)N[C@@H](CC(=O)O)c3ccc(-c4ccc(OCCOCCOCCOCCOCCn5cc(CNC(=O)c6ccc7c(c6)C(=O)OC76c7ccc(O)cc7Oc7cc(O)ccc76)nn5)c5ccccc45)cc3)C2=O)c1` (stereo partly drawn) [Compound 5-5FAM], for which, on Integrin αvβ6 Receptor [2], the Hillslope is reported as 1.3 and the Emax was 107%.
`[N-]=[N+]=NCCOCCOCCOCCOCCOc1ccc(-c2ccc(C(CC(=O)O)CN3CCC(CCc4ccc5c(n4)NCCC5)C3)cc2)c2ccccc12` (stereo not drawn) [Compound 49]: at Integrin αvβ6 Receptor [1] (setting [3]), the IC50 was found to be 3.1 nM.
For `Cc1nn(-c2cccc(C(CC(=O)O)CN3CC[C@@H](CCc4ccc5c(n4)NCCC5)C3)c2)c(C)c1OCCOCCOCCOCCOCCN=[N+]=[N-]` (single isomer, unassigned) [Compound 14-P2], the IC50 on Integrin αvβ5 Receptor (read-out: IC50 (nM) αvβ5, Table 4, different integrin receptors) came out at 0.7 nM; on Integrin αvβ6 Receptor [1] (setting [3]), 3.5 nM; at Integrin αvβ6 Receptor [1] (setting [5]) it was 3.9 nM; at Integrin αvβ1 Receptor, 10.3 nM.
`[N-]=[N+]=NCCOCCOCCOCCOCCOc1ccc(C(CC(=O)O)CN2CCC(CCc3ccc4c(n3)NCCC4)C2)cc1F` (stereo not drawn) [Compound 83]: the IC50 at Integrin αvβ6 Receptor [1] (setting [3]) was determined as 3.7 nM.
In the case of `[N-]=[N+]=NCCOCCOCCOCCOCCOc1cccc([C@H](CC(=O)O)CN2CC[C@@H](CCc3ccc4c(n3)NCCC4)C2)c1` (single isomer, unassigned) [Compound 18-P1], the IC50 at Integrin αvβ5 Receptor (setting [4]) is 0.6 nM; on Integrin αvβ6 Receptor [1] (setting [3]) it was 3.2 nM; on Integrin αvβ6 Receptor [1] (setting [5]) it was 3.2 nM; at Integrin αvβ1 Receptor, 9.1 nM.
`COCCOc1cc(OCCOCCOCCOCCOCCN=[N+]=[N-])cc(C(CC(=O)O)CN2CCC(CCc3ccc4c(n3)NCCC4)C2)c1` (stereo not drawn) [Compound 57]: the IC50 at Integrin αvβ6 Receptor [1] (setting [3]) was 3.3 nM.
In the case of `Cc1nn(-c2cccc(C(CC(=O)O)CN3CC[C@@H](CCc4ccc5c(n4)NCCC5)C3)c2)c(C)c1OCCOCCOCCOCCOCCN=[N+]=[N-]` (single isomer, unassigned) [Compound 14-P1], the IC50 at Integrin αvβ6 Receptor [1] (setting [3]) is 9.4 nM.
At Integrin αvβ6 Receptor [1] (Integrin αvβ6, HTRF), `[N-]=[N+]=NCCOCCOCCOCCOCCOc1ccc(-c2ccc([C@H](CC(=O)O)NC(=O)CCCCc3ccc4c(n3)NCCC4)cc2)c2ccccc12` [Compound 8] showed a Hillslope of 2.5, a Max of 107.0 and a Min of -2.0. Also, on Integrin αvβ6 Receptor [1] (setting [6]), the IC50 was determined as 1.37 nM.
`[N-]=[N+]=NCCOCCOCCOCCOCCOc1cc(-c2ccccc2)cc(C(CC(=O)O)CN2CCC(CCc3ccc4c(n3)NCCC4)C2)c1` (stereo not drawn) [Compound 59]: the IC50 on Integrin αvβ6 Receptor [1] (setting [3]) was found to be 2.9 nM.
With `Cc1ccnc(NCCCC(=O)NCC(=O)N[C@@H](CC(=O)O)c2ccc(-c3ccc(OCCOCCOCCOCCOCCN=[N+]=[N-])c4ccccc34)cc2)c1` [Compound 1, reference compound], the IC50 at Integrin αvβ5 Receptor (setting [4]) is 3.4 nM; on Integrin αvβ6 Receptor [1] (setting [3]) it was 2.5 nM and 2.3 nM; at Integrin αvβ6 Receptor [1] (setting [5]), 2.5 nM; at Integrin αvβ1 Receptor, 9.7 nM.
As for `Cc1nn(-c2cccc(C(CC(=O)O)CN3CC[C@@H](CCc4ccc5c(n4)NCCC5)C3)c2)c(C)c1OCCOCCOCCOCCOCCN=[N+]=[N-]` (stereo partly drawn) [Compound 14], on Integrin αvβ6 Receptor [1] (setting [3]), the IC50 is 4.9 nM and 2.8 nM.
`COC(=O)C[C@H](NC(=O)CNC(=O)CCCN(C(=O)OC(C)(C)C)c1cc(C)ccn1)c1ccc(-c2ccc(OCCOCCOCCOCCOCCn3cc(CNC(=O)c4ccc5c(c4)C(=O)OC54c5ccc(O)cc5Oc5cc(O)ccc54)nn3)c3ccccc23)cc1` [Compound 1NG-5FAM]: at Integrin αvβ6 Receptor [2], the Hillslope was determined as 2.5, the Emax came out at 100% and the IC50 worked out at 41.9 nM.
In the case of `Cc1ccnc(NCCCC(=O)NCC(=O)N[C@@H](CC(=O)O)c2ccc(-c3ccc(OCCOCCOCCOCCOCCn4cc(COCCOCCNC(=O)CCC(CCC(=O)NCCOCCOCc5cn(CCOCCOCCOCCOCCOc6ccc(-c7ccc([C@H](CC(=O)O)NC(=O)CNC(=O)CCCNc8cc(C)ccn8)cc7)c7ccccc67)nn5)(CCC(=O)NCCOCCOCc5cn(CCOCCOCCOCCOCCOc6ccc(-c7ccc([C@H](CC(=O)O)NC(=O)CNC(=O)CCCNc8cc(C)ccn8)cc7)c7ccccc67)nn5)NC(=O)CCCC(=O)NCCCCCCNC(=O)c5ccc6c(c5)C(=O)OC65c6ccc(O)cc6Oc6cc(O)ccc65)nn4)c4ccccc34)cc2)c1` [Compound 1-3-5FAM], on Integrin αvβ6 Receptor [2], the Hillslope was 1.6, the Emax was determined as 107% and the IC50 is 2.52 nM.
In the case of `[N-]=[N+]=NCCOCCOCCOCCOCCOc1ccc(F)c(C(CC(=O)O)CN2CCC(CCc3ccc4c(n3)NCCC4)C2)c1` (stereo not drawn) [Compound 53], the IC50 on Integrin αvβ6 Receptor [1] (setting [3]) stood at 3.8 nM.
On to `COCCN(CCCCc1ccc2c(n1)NCCC2)CC[C@H](Nc1ncnc2cc(OCCOCCOCCOCCOCCn3cc(CNC(=O)c4ccc5c(c4)C(=O)OC54c5ccc(O)cc5Oc5cc(O)ccc54)nn3)ccc12)C(=O)O` [Compound 17-5FAM], for which, on Integrin αvβ6 Receptor [2], the Hillslope was determined as 1.5, the Emax is 98.9% and the half-inhibitory concentration (IC50) was found to be 7.99 nM.
As to `[N-]=[N+]=NCCOCCOCCOCCOCCOc1cccc(C(CC(=O)O)CN2CCC(CCc3ccc4c(n3)NCCC4)C2)c1` (stereo not drawn) [Compound 18-P2], the IC50 at Integrin αvβ6 Receptor [1] (setting [3]) is 13.9 nM.
Take `Cc1cc(C)n(-c2cccc(C(CC(=O)O)CN3CCC(CCc4nc5c(cc4CNC(=O)CCOCCOCCOCCOCCN=[N+]=[N-])CCCN5)C3)c2)n1` (stereo not drawn) [Compound 13]: the IC50 at Integrin αvβ6 Receptor [1] (setting [3]) was 2.5 nM and 1.7 nM.
For the compound `O=C(O)c1ccc2c(c1)C(=O)OC21c2ccc(O)cc2Oc2cc(O)ccc21` [Compound 5FAM], at Integrin αvβ6 Receptor [1] (Integrin αvβ6, HTRF), the Hillslope is -11.5, the Max was found to be 6.3 and the Min is reported as -2.8. Besides, the IC50 at Integrin αvβ6 Receptor [1] (setting [6]) is over 100 nM.
As to `CNc1cccc(CC(=O)NCC(=O)N[C@@H](CC(=O)O)c2ccc(-c3ccc(OCCOCCOCCOCCOCCn4cc(CNC(=O)c5ccc6c(c5)C(=O)OC65c6ccc(O)cc6Oc6cc(O)ccc65)nn4)c4ccccc34)cc2)n1` [Compound 6-5FAM], at Integrin αvβ6 Receptor [2], the Hillslope was 1.2, the Emax was 95.8% and the IC50 was 1.6 nM.
For `CC(C)[C@H]1C(=O)N[C@@H](CCCNC(=N)N)C(=O)NCC(=O)N[C@@H](CC(=O)O)C(=O)N[C@H](Cc2ccccc2)C(=O)N1C` [Cilengitide, reference compound], at Integrin αvβ6 Receptor [2], the Hillslope was determined as 1.2 and the Emax worked out at 98.2%.
Consider `O=C(NCc1cn(CCOCCOCCOCCOCCOCCN(CCCCc2ccc3c(n2)NCCC3)CC[C@H](Nc2ncnc3ccccc23)C(=O)O)nn1)c1ccc2c(c1)C(=O)OC21c2ccc(O)cc2Oc2cc(O)ccc21` [Compound 16-5FAM], for which, at Integrin αvβ6 Receptor [2], the Hillslope came to 1.4, the Emax worked out at 101% and the IC50 is 1.77 nM.
On to `[N-]=[N+]=NCCOCCOCCOCCOCCOc1ccc(-c2ccc(C(CC(=O)O)CN3CCC(CCc4ccc5c(n4)NCCC5)C3)cc2)cc1` (stereo not drawn) [Compound 84], for which the IC50 at Integrin αvβ6 Receptor [1] (setting [3]) is 3.8 nM.
With `Cc1ccnc(NCCCC(=O)N2CCN(C(CC(=O)O)c3ccc(-c4ccc(OCCOCCOCCOCCOCCn5cc(CNC(=O)c6ccc7c(c6)C(=O)OC76c7ccc(O)cc7Oc7cc(O)ccc76)nn5)c5ccccc45)cc3)CC2)c1` (stereo not drawn) [Compound 4-5FAM], on Integrin αvβ6 Receptor [2], the Hillslope came out at 1.1 and the Emax amounted to 100%.
For the compound `[N-]=[N+]=NCCOCCOCCOCCOCCOc1ccc(C(CC(=O)O)CN2CCC(CCc3ccc4c(n3)NCCC4)C2)cc1` (stereo not drawn) [Compound 20-P2], the IC50 at Integrin αvβ6 Receptor [1] (setting [3]) is 13.4 nM.
At Integrin αvβ6 Receptor [1] (Integrin αvβ6, HTRF), `O=C(O)CC(NC(=O)CCCCc1nc2c(cc1CNC(=O)CCOCCOCCOCCOCCNC(=O)c1ccc3c(c1)C(=O)OC31c3ccc(O)cc3Oc3cc(O)ccc31)CCCN2)c1ccc(-c2cccc3ccccc23)cc1` (stereo not drawn) [Compound 9-5FAM] gave a Hillslope of 2.0, a Max of 103.1 and a Min of -2.2. For the same compound, on Integrin αvβ6 Receptor [1] (setting [6]), the IC50 turned out to be 1.48 nM.
